The values that follow come from patent publication US12138286B2, “Combination method for treating or preventing childhood atopic disease” (Johnson & Johnson Consumer Inc., priority 2022, dated 2024).

The subject of this data set is high-risk infants. Also on record: species or system human. The following applies: in vivo. The text has this: High-risk infants were identified using parental history of atopic disease and were randomized to either the skin treatment regimen and composition or standard routine care, each set forth below, from soon after recruitment in the postnatal ward (approximately 4 day) until eight weeks of age. Both the intervention and standard of care groups were advised to use a standardized bathing routine for the first 2 months. • Skin treatment regimen and composition: twice daily whole-body application of […] & Long-Lasting Balm, which on pack contains the following ingredients: glycerin, aqua, cetearyl alcohol, isocetyl alcohol, dimethicone, cetyl alcohol, Avena sativa kernel flour, Avena sativa kernel extract, Avena sativa kernel oil, caprylic/capric triglyceride, ceramide 3, ethylhexylglycerin, p-anisic acid, sodium cetearyl sulfate, palmitic acid, stearic acid, sodium sulfate, sodium chloride, citric acid, dipotassium phosphate, potassium phosphate, sodium hydroxide, tocopherol, benzyl alcohol, benzoic acid, and potassium sorbate. • Control: Standard routine care, which involves no use of moisturizer for the first two months. Within approximately 4 days of birth, infants were randomized to either treatment with skin treatment regimen and composition or to standard routine skincare with no moisturizer until 2 months of age. […]

For the substance “AVEENO® Dermexa Fast & Long-Lasting Balm [Intervention]”, the “Infants advised to stop applying the emollient after developing a rash with a potential temporal relationship with the emollient” value is “One” and the Parent-reported skin infections is 5%.
